From patent EP0958819A1, “REMEDIES/PREVENTIVES FOR ABNORMAL MOTIONS ACCOMPANYING DISORDERS IN EXTRAPYRAMIDAL SYSTEM” (Asahi Kasei Kogyo Kabushiki Kaisha, priority 1996, dated 1998)
Where a name gives a salt, the structure may show the parent alone. Marks after values point to notes of the source that are not given here.

Columns and labels:
[1] = system: involuntary head-movements induced by IPDN; assay: Antagonistic action against IDPN model (head movements); assay type: in vivo, Sprague-Dawley rats; conditions: 1 mg/kg p.o.; IDPN 150 mg/kg i.p. for 6 days; counted during 30 minutes starting 30 minutes after dosing; mean ± standard error, 6 rats; control group 347 ± 14.4; p < 0.01
Experimental: When […] (IDPN, Tokyo Kasei Kogyo K.K., Japan) is administered in rats, rapid reciprocation of horizontal and vertical head movements is induced. […] This is very similar to the abnormal movements accompanying disorders of extrapyramidal system of human, which is classified into the group with major symptom of rapid involuntary movement and muscle hypotonia. (Schneider, J. S., Exp. Neurol., 84, 524 - 532, 1984).
IDPN (Tokyo Kasei Kogyo K.K., Japan) 150 mg/kg was administered to Sprague-Dawley rats (Charles River Inc., 7 weeks old) for 6 days intraperitoneally. Animals expressing horizontal and vertical head movements (at initiation of the experiment: 12 - 14 weeks old) within after 2 weeks of administration were used for dyskinesia model animals. The compound of the present invention (1 mg/kg) or distilled water (as a control group) was administered orally in rats. After 30 minutes, numbers of horizontal and vertical head movements neck during 30 minutes thereafter were counted. One reciprocation is counted as one motion.

dystonia model = assay: Inhibitory effect against dystonia model (haloperidol infused into red nucleus); assay type: in vivo, Wistar rats; conditions: combined infusion of haloperidol 3 nmol and compound 0.03 nmol into red nucleus; maximum torsional angle, mean ± S.D., 12 rats; control (haloperidol 3 nmol) 24.1 ± 1.7; p<0.01
Text: Unilateral infusion of haloperidol into red nucleus of rats results to appear continuous torsional movements of the head when the infusion side was laid down under side. This model reflects dystonia characterized by slow involuntary movement and hypermyotonia, which is one of abnormal movements accompanying disorders of extrapyramidal system. (Matsumoto, R.R. et al. Pharmacol. Biochem. Behavior.,36, 151 - 155, 1989). Evaluation of the compound of the present invention on dystonia model was performed by the following method.
Wistar rats (Japan Charles River Inc., 9 weeks old) were anesthetized by administration of pentobarbital (Somnopentil injection) 50 mg/kg intraperitoneally, and fixed the head by stereotaxic apparatus (David Coop Inc. U.S.A., David kopf). Scalp was incised and the bone of skull was exposed. Guide cannula 25G (Eicom Inc., Japan) was implanted 4.5 mm the above the left red nucleus and fixed with dental cement. After 2 - 3 days, injection cannula 27G (Eicom Inc., Japan) was inserted into the guide cannula without anesthetization. The tip of the cannula was introduced into the red nucleus below 4.5 mm of the guided cannula. […]
Rats were set into the observation cage made with transparent acrylic resin and recorded the front view image by video camera. […]

red nucleus = assay: Effect on the firing rate in the red nucleus (electrophysiology, anesthetized rats); assay type: in vivo, Wistar rats; conditions: firing rate before administration = 100 %
Text: The red nucleus belongs extrapyramidal system and have an important role for regulating motor function. Destruction of the red nucleus in rats was reported to enhance the catalepsy. (Kolasa. K. et al., Pharmacol. Biochem. Behav.,51, 29 - 35, 1995). As shown in Example 4 dystonia model, unilateral infusion of haloperidol into red nucleus of rats results to appear dystonia. As shown like this, the hypofunction of red nucleus have a close relation with the expression of abnormal movements accompanying disorders of extrapyramidal system. Namely, hypofunction of red nucleus is considered to lead to the abnormal movements accompanying disorder of extrapyramidal system. In this experiment, effect of the compound of the present invention on the haloperidol-induced decrease of firing rate in red nucleus was examined. […]
Electric signals from the glass electrode were amplified with a micro electrode amplifier (MEZ-8301, Nihon Koden Co., Japan), filtered band path of 3 kHz - 50 Hz and humfilter and monitored on a oscilloscope (VC-11, Nihon Koden Co., Japan). […] Number of firing/10 seconds (firing rate) was calculated using pulse counter (MET-1100, Nihon Koden Co., Japan) and recorded by computer (Maclab ver. 3.5. Macintosh) with time dependent manner. […]

[2] = system: haloperidol-induced catalepsy; assay: Preventive effect for catalepsy model, haloperidol-induced; assay type: in vivo, Wistar rats; conditions: 1 mg/kg p.o. 30 minutes before haloperidol 2 mg/kg i.p.; catalepsy observed 1 hour after haloperidol; shortening of catalepsy duration vs distilled water group; 10 rats
Experimental: (§1) When a drug having dopamine receptor blocking activity is administered in rats, catalepsy induced. Catalepsy means a symptom of rats, which can not recovered by own intention, when rats are enforced unnatural posture, and it reflects abnormal movements consisting of mainly tremor, muscle rigidity and hypokinesia. (Hornykiewicz, O. Br. Med. Bull., 29, 172 - 178, 1973). […] (Schmidt, W.J. and Bubser, M., Pharmacol. Biochem. Behavior., 32, 621 - 623, 1988).
(§2) The compound A hydrochloride, 1mg/kg, was administered orally into Wistar rats, male (Japan Charles River Inc.). After 30 minutes, haloperidol (Sigma Corp., U.S.A.), 2mg/kg, or risperidone, which was extracted from Risperdal (trade name, Janssen Corp.,UK) according to the method hereinbelow explained, 20 mg/kg were administered intraperitoneally. Catalepsy after 1 hour of administration of haloperidol or risperidone was observed. Catalepsy was observed by hanging rats in their forepaws on the iron bar, diameter 2 mm, set on the position of 12 cm high, and we measured the time maintaining this posture. Measurements were conducted maximum for 180 seconds. Experiments were conducted in a group of 10 rats for haloperidol induced catalepsy test and a group of 5 rats for risperidone induced catalepsy test. The mean duration of catalepsy in distilled water (vehicle of the compound in present invention)-administered group was defined as 100 %. […]

[3] = system: risperidone-induced catalepsy; assay: Preventive effect for catalepsy model, risperidone-induced; assay type: in vivo, Wistar rats; conditions: 1 mg/kg p.o. 30 minutes before risperidone 20 mg/kg i.p.; catalepsy observed 1 hour after risperidone; shortening of catalepsy duration vs distilled water group; 5 rats
Experimental: as §1, §2

[4] = system: haloperidol-induced catalepsy; assay: Therapeutic effect against catalepsy model, haloperidol-induced; assay type: in vivo, Wistar rats; conditions: 1 mg/kg p.o. given 45 minutes after haloperidol 2 mg/kg i.p. to rats showing catalepsy; measured 75 minutes after compound; 10 rats
Experimental: (§3) Therapeutic effects of the compound of the present invention on haloperidol or risperidone induced catalepsy were examined using Wistar rats, male (Charles River Inc., Canada).
After further 15 minutes, the compound of the present invention or distilled water was administered orally. Therapeutic effect of the present compound against haloperidol induced catalepsy was measured after 75 minutes of administration of the compound of the present invention.
(§4) Catalepsy was observed by hanging rats in their forepaws on the iron bar, diameter 2 mm, set on the position of 12 cm high, and we measured the duration of catalepsy. Measurements were conducted maximum for 180 seconds. Experiments were conducted in a group of 10 rats for haloperidol-induced catalepsy test and a group of 5 to 6 rats for risperidone induced catalepsy test. The mean duration of catalepsy in distilled water (vehicle of the compound in present invention)-administered group was defined as 100 %. Suppressive rate was indicated as percent of the shortening on the duration of catalepsy in the compound-administered group comparing with the mean of that in distilled water administered group.

[5] = system: risperidone-induced catalepsy; assay: Therapeutic effect against catalepsy model, risperidone-induced; assay type: in vivo, Wistar rats; conditions: 1 mg/kg p.o. given 75 minutes after risperidone 20 mg/kg i.p. to rats showing catalepsy; measured 105 minutes after compound; 5 to 6 rats
Experimental: as §3
After further 15 minutes, the compound of the present invention or distilled water was administered orally. Therapeutic effect of the present compound against risperidone induced catalepsy was measured after 105 minutes of administration of the compound of the present invention.
as §4

## CC1(C)C2CC[C@]1(C)CN(CCC1C3CC4CC(C3)CC1C4)C2 (stereo partly drawn) [Compound A, (1S)-3-[2-(2-adamantyl)ethyl]-1,8,8-trimethyl-3-azabicyclo [3.2.1]-octane]
[1]
  Numbers of oscillation of neck: 224.5 ± 24.4
Dystonia model
  torsional angle of head: 15.5 ± 1.3

## O=C(CCCN1CCC(O)(c2ccc(Cl)cc2)CC1)c1ccc(F)cc1 [haloperidol, reference compound]
Red nucleus; saline i.v. 1 - 3 minutes before haloperidol 0.2 mg/kg i.v.
  % Inhibitor of firing rate: 60.1%

## CC1(C)C2CC[C@]1(C)CN(CCC1C3CC4CC(C3)CC1C4)C2 (stereo partly drawn) [Compound A hydrochloride, (1S)-3-[2-(2-adamantyl)ethyl]-1,8,8-trimethyl-3-azabicyclo [3.2.1]-octane]
[2]
  Suppressive rate (mg/kg, p.o.): 77% (1)
[3]
  Suppressive rate (mg/kg, p.o.): 53% (1)
[4]
  Suppressive rate (mg/kg, p.o.): 50% (1)
[5]
  Suppressive rate (mg/kg, p.o.): 48% (1)
Red nucleus; compound 0.1 µg/kg i.v. 1 - 3 minutes before haloperidol 0.2 mg/kg i.v., P<0.05
  % Inhibitor of firing rate: 24.7 %*
